The values that follow come from patent US7687482B2, “Bisphosphonate compounds and methods” (The Board of Trustees of the University of Illinois, priority 2006, dated 2010).

Where two headings read alike, the source gives them in different places.

The target in assay [1] is T1, Human FPPS (Homo sapiens, UniProt P14324).
T1 sequence (P14324 1-419): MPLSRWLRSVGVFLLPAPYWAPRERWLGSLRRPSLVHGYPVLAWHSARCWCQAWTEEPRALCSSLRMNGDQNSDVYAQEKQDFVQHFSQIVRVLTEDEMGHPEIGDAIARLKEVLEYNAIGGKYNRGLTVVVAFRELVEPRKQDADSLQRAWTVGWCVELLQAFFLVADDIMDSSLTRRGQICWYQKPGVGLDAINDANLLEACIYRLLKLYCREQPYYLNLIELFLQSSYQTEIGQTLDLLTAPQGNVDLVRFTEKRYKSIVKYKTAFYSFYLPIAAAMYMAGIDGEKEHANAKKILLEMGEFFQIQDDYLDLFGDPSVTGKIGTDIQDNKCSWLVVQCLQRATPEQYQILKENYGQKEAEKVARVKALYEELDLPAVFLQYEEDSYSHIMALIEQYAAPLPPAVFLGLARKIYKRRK
Put plainly: Human FPPS inhibition. It is filed as biochemical.

For assay [2], the system named is Gammadelta T cell. Put plainly: Gammadelta T cell stimulation. Type of assay: cell-based, human.
Assay [3] has as its system D. discoideum. Put plainly: D. discoideum growth inhibition. It is filed as cell-based, Dictyostelium discoideum.
The target in assay [4] is T. brucei FPPS (Trypanosoma brucei, UniProt Q57WF1). The experiment in a line: biochemical.
Sequence of T. brucei FPPS (Q57WF1 entry or part of it): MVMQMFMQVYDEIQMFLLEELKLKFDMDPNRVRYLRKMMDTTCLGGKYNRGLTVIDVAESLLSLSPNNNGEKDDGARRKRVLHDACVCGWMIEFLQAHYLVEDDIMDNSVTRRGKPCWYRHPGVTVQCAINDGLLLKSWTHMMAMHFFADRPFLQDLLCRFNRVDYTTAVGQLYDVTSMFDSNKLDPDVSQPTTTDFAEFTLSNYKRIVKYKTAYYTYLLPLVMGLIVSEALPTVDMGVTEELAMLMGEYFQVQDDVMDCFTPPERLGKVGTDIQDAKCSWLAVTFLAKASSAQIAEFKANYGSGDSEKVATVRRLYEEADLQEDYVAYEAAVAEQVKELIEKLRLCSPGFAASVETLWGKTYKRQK
The test system of assay [5] is SF-268 cell. The experiment in a line: Tumor cell growth inhibition, SF-268. It is filed as cell-based, human. The settings on record: central nervous system (glioblastoma) cell line. How it is done: (§1) Bisphosphonate compounds were tested regarding tumor cell growth inhibition. […] See Table 1 and FIG. 3 showing dose-response data.
In assay [6] the test system is MCF-7 cell. Put plainly: Tumor cell growth inhibition, MCF-7. It is filed as cell-based, human. Conditions: breast cancer cell line. How it is done:
as §1

The subject of assay [7] is NCI-H460 cell. Put plainly: Tumor cell growth inhibition, NCI-H460. Type of assay: cell-based, human. Conditions: lung cancer cell line. How it is done:
as §1

Assay [8] has as its target undecaprenyl diphosphate synthase (UPPS) (Escherichia coli, UniProt P60472). Put plainly: UPPS inhibition. Type of assay: biochemical. How it is done: Certain compounds were also tested regarding the ability to inhibit undecaprenyl diphosphate synthase (UPPS). See results in Table 2. […] For example, an antibacterial treatment can include contacting a bacterial cell with a compound of the invention. In an embodiment, a bacterial cell can be, e.g., a Gram negative organism such as E. coli or a Gram positive organism such as Staphylococcus aureus.

In assay [9] the test system is E. coli. Put plainly: Anti-bacterial activity in E. coli. It is filed as cell-based, Escherichia coli. From the text:
We considered aspects of mevalonate and non-mevalonate pathway gene regulation.

The mark [10] stands for this setting: Dictyostelium discoideum; read-out: D. discoideum IC50.

Sequence of undecaprenyl diphosphate synthase (UPPS) (P60472 whole entry): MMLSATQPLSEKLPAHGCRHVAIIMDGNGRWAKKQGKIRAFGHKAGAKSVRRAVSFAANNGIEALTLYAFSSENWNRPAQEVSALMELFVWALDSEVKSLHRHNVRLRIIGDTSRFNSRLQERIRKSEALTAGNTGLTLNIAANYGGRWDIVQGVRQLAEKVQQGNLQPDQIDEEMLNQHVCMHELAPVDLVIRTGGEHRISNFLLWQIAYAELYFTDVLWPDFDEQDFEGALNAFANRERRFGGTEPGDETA

“1-hydroxy-3-(trimethylphosphoniumyl)propylidene-1,1-bisphosphonic acid [Compound 9]” had a Ki in [1] of 0.0226 µM. Also, the response in assay [2] was half-maximal at 1800 µM (EC50). The IC50 in [3] (read-out: D. discoideum IC50) came out at 207 µM.

For `NCCC(O)(P(=O)(O)O)P(=O)(O)O` [1 (Pamidronate), Pamidronate, reference compound], the half-maximal inhibitory concentration (IC50) in assay [3] (setting [10]) amounted to 167 µM.

With `NCCCC(O)(P(=O)(O)O)P(=O)(O)O` [2 (alendronate), alendronate, reference compound], a half-maximal effect in assay [2] (Homo sapiens, T-cell) (EC50) was put at 52 µM. Also, the concentration for half-maximal inhibition (IC50) in [3] (setting [10]) came to 32 µM.

`O=P(O)(O)C(O)(Cc1cccnc1)P(=O)(O)O` [3 (risedronate), risedronate, reference compound] had an EC50 in assay [2] (Homo sapiens, T-cell) of 6.2 µM.

Take `O=P(O)(O)C(O)(Cn1ccnc1)P(=O)(O)O` [4 (zoledronate), zoledronate, reference compound]: the IC50 worked out at 0.32 µM in [4] and 1.9 µM in [3] (Dictyostelium discoideum, read-out: D. discoideum IC50).

With `O=P(O)(O)C(O)(C[S+]1CCCCC1)P(=O)(O)O` [Compound 6, 1-hydroxy-2-(pentamethylenesulfoniumyl)ethylidene-1,1-bisphosphonic acid], the half-maximal effective concentration (EC50) in assay [2] was 22.1 µM. The half-maximal inhibitory concentration (IC50) in assay [4] (read-out: T. brucei FPPS IC50) turned out to be 0.4 µM; in assay [3] (read-out: D. discoideum IC50) it was 4.78 µM.

For the compound `C[P+](C)(C)CC(O)(P(=O)(O)O)P(=O)(O)O` [Compound 7, 1-hydroxy-2-(trimethylphosphoniumyl)ethylidene-1,1-bisphosphonic acid], in assay [1], the inhibitory constant (Ki) came out at 0.00818 µM. The EC50 in [2] is 127 µM. In addition, the concentration for half-maximal inhibition (IC50) in assay [4] (read-out: T. brucei FPPS IC50) is 2 µM; in assay [3] (read-out: D. discoideum IC50), 13.8 µM.

With `CC[S+](CCCOc1ccccc1)CCC(O)(P(=O)(O)O)P(=O)(O)O` (centres unmarked) [Compound 16, 1-hydroxy-3-(S-ethyl-3-phenoxypropylsulfoniumyl)propylidene-1,1-bisphosphonic acid], affinity in assay [1] was put at a Ki of 0.0052 µM. Moreover, a half-maximal effect in [2] (EC50) was put at 199 µM. In addition, the half-inhibitory concentration (IC50) in assay [3] (read-out: D. discoideum IC50) is 4.23 µM.

`C[S+](CCCc1ccccc1)CC(O)(P(=O)(O)O)P(=O)(O)O` (centres unmarked) [Compound 23, 1-hydroxy-2-(S-methyl-3-phenylpropylsulfoniumyl)ethylidene-1,1-bisphosphonic acid]: in [1], the Ki was 0.00568 µM. The results for the 50% inhibitory concentration (IC50) in assay [4] (read-out: T. brucei FPPS IC50) and in assay [3] (read-out: D. discoideum IC50) were 0.18 µM and 1.85 µM, respectively.

As to `O=P(O)(O)C(Cc1ccc(Br)c(Br)c1)P(=O)(O)O` [Compound 491, 2-(3,4-Dibromophenyl)ethylidene-1,1-bisphosphonic acid], the values for the IC50 in assay [5], in assay [6] and in assay [7] were 349 µM, 533 µM and 446 µM, respectively.

With `CC(C)(C)C(=O)OCOP(=O)(OCOC(=O)C(C)(C)C)C(Cc1ccc(Br)c(Br)c1)P(=O)(OCOC(=O)C(C)(C)C)OCOC(=O)C(C)(C)C` [Compound 493, Tetrakis-pivaloyloxymethyl 2-(3,4-dibromophenyl)ethylidene-1,1-bisphosphonate], the figures for the half-maximal inhibitory concentration (IC50) in assay [5], in assay [6] and in assay [7] were 0.65 µM, 0.22 µM and 0.62 µM, respectively.

For `CC(C)(C)C(=O)OCOP(=O)(OCOC(=O)C(C)(C)C)C(Cc1ccc(Cl)c(Cl)c1)P(=O)(OCOC(=O)C(C)(C)C)OCOC(=O)C(C)(C)C` [Compound 494, Tetrakis-pivaloyloxymethyl 2-(3,4-dichlorophenyl)ethylidene-1,1-bisphosphonate], the values for the half-inhibitory concentration (IC50) in [5], in assay [6] and in assay [7] were 1.43 µM, 0.34 µM and 2.7 µM, respectively.

With `CC(C)OC(=O)OCOP(=O)(OCOC(=O)OC(C)C)C(Cc1ccc(Cl)c(Cl)c1)P(=O)(OCOC(=O)OC(C)C)OCOC(=O)OC(C)C` [Compound 495, Tetrakis-isopropoxycarboxymethyl 2-(3,4-dichlorophenyl)ethylidene-1,1-bisphosphonate], the IC50 came to 4.78 µM in assay [5], 1.97 µM in assay [6] and 4.85 µM in assay [7].

Regarding `O=P(O)(O)C(O)(Cc1cccc(-c2cccc(-c3ccccc3)c2)c1)P(=O)(O)O` [Compound 608, 1-Hydroxy-2-[3-(3-phenylphenyl)phenyl]ethylidene-1,1-bisphsophonic acid], the IC50 in [8] was found to be 0.61 µM; in assay [5] (Homo sapiens, SF-268), 130 µM; in assay [6] (Homo sapiens, MCF7) it was 152 µM; in [7] (Homo sapiens, NCI-H460), 140 µM.

Consider `O=P(O)(O)C(O)(CCc1cccc(-c2ccc(-c3ccccc3)cc2)c1)P(=O)(O)O` [Compound 618, 1-Hydroxy-3-[3-(4-phenylphenyl)phenyl]propylidene-1,1-bisphosphonic acid], for which the half-inhibitory concentration (IC50) worked out at 12.5 µM in assay [8], 175 µM in [5], 196 µM in assay [6] and 132 µM in assay [7].

Take `O=P(O)(O)C(O)(CCc1cccc(-c2ccccc2-c2ccccc2)c1)P(=O)(O)O` [Compound 621, 1-Hydroxy-3-[3-(2-phenylphenyl)phenyl]propylidene-1,1-bisphosphonic acid]: the IC50 in assay [8] worked out at 7.51 µM; in assay [5] (Homo sapiens, SF-268), 143 µM; in [6] (Homo sapiens, MCF7), 146 µM; in assay [7] (Homo sapiens, NCI-H460), 133 µM.

Consider `O=P(O)(O)C(O)(CCc1cccc(-c2cccc(-c3ccccc3)c2)c1)P(=O)(O)O` [Compound 622, 1-Hydroxy-3-[3-(3-phenylphenyl)phenyl]propylidene-1,1-bisphsophonic acid], for which the IC50 in assay [8] was determined as 2.39 µM; in [5] (Homo sapiens, SF-268), 44.7 µM; in [6] (Homo sapiens, MCF7), 43.9 µM; in assay [7] (Homo sapiens, NCI-H460), 46.9 µM.

Consider `O=P(O)(O)C(O)(Cc1cccc(-c2ccccc2-c2ccccc2)c1)P(=O)(O)O` [Compound 623, 1-Hydroxy-2-[3-(2-phenylphenyl)phenyl]ethylidene-1,1-bisphsophonic acid], for which the IC50 was 58 µM in [5], 92.7 µM in assay [6] and 86.1 µM in assay [7].

In the case of `O=P(O)(O)C(O)(Cc1ccc(-c2ccccc2-c2ccccc2)cc1)P(=O)(O)O` [Compound 624, 1-Hydroxy-2-[4-(2-phenylphenyl)phenyl]ethylidene-1,1-bisphosphonic acid], the half-maximal inhibitory concentration (IC50) in assay [5] was 475 µM; in assay [6], 1060 µM; in [7], 329 µM.

Regarding `O=P(O)(O)C(O)(Cc1ccc(-c2cccc(-c3ccccc3)c2)cc1)P(=O)(O)O` [Compound 625, 1-Hydroxy-2-[4-(3-phenylphenyl)phenyl]ethylidene-1,1-bisphosphonic acid], the half-inhibitory concentration (IC50) worked out at 0.89 µM in assay [8]; 620 µM in assay [5] (Homo sapiens, SF-268); 412 µM in [6] (Homo sapiens, MCF7); 413 µM in assay [7] (Homo sapiens, NCI-H460).

With `O=P(O)(O)C(O)(c1cccc(-c2cccc(-c3ccccc3)c2)c1)P(=O)(O)O` [Compound 640, 1-Hydroxy-[3-(3-phenylphenyl)phenyl]methylene-1,1-bisphsophonic acid], the half-maximal inhibitory concentration (IC50) in assay [8] turned out to be 1.86 µM; in assay [5] (Homo sapiens, SF-268) it was 303 µM; in [6] (Homo sapiens, MCF7), 310 µM; in assay [7] (Homo sapiens, NCI-H460), 285 µM.

For `CC(C)(C)C(=O)OCOP(=O)(OCOC(=O)C(C)(C)C)C(Cc1cccc(-c2cccc(-c3ccccc3)c2)c1)P(=O)(OCOC(=O)C(C)(C)C)OCOC(=O)C(C)(C)C` [Compound 647, Tetrakis-pivaloyloxymethyl 2-[3-(3-phenylphenyl)phenyl]ethylidene-1,1-bisphosphonate], the results for the 50% inhibitory concentration (IC50) in [5], in [6] and in assay [7] were 2.38 µM, 2.62 µM and 1.64 µM, respectively.

Take `O=CN(O)CCCP(=O)(O)O` [fosmidomycin]: in assay [9], the anti-bacterial properties result was “anti-bacterial properties”.

Take “Tetrakis-isopropoxycarboxymethyl 2-(3,4-difluorophenyl)ethylidene-1,1-bisphosphonate [Compound 496]”: the IC50 in assay [5] worked out at 28.3 µM; in [6], 15.2 µM; in assay [7], 20.1 µM.

In the case of “Tetrakis-isopropoxycarboxymethyl 2-(3-cyanophenyl)ethylidene-1,1-bisphosphonate [Compound 498]”, the IC50 in assay [5] amounted to 7.77 µM; in [6], 58.6 µM; in [7], 22.6 µM.

The term Ki denotes the dissociation constant of the complex between target and ligand, obtained from inhibition or displacement. As a reminder, the EC50 is the concentration needed to bring the measured effect to its halfway point. A low value points to higher potency in that assay. The IC50 is the concentration that gives 50% inhibition.
